Measured values as given in article PMC10846240, “Pharmacokinetic/pharmacodynamic integration of amphenmulin: a novel pleuromutilin derivative against Mycoplasma gallisepticum” (Microbiology Spectrum, 2023).
Values after ≈ are worked out from the molar mass of the structure shown. Read-outs that look alike come from different tables or passages of the source.

How the values were obtained:
[1] = system: M. gallisepticum S6 strain; test: Susceptibility assay, broth microdilution (MIC, MBC); assay type: cell-based, Mycoplasma gallisepticum
Protocol: The minimum inhibitory concentration (MIC) of amphenmulin against M. gallisepticum S6 strain was determined with reference to the protocols previously reported ([16], [17]). The broth microdilution method was performed using 96-well plates to achieve a final titer of approximately 10^7 colony-forming units (CFU)/mL of M. gallisepticum in each well. The final concentrations tested of amphenmulin ranged from 0.488 × 10^−3 to 0.125 µg/mL. Concurrently, a growth control (without drug), an end-point control (blank medium), and a sterile control (sterile broth) were also implemented. […] For the agar dilution method, M. gallisepticum was inoculated and cultured on agar plates containing a twofold dilution series of amphenmulin concentrations, and the MIC was the lowest drug concentration that inhibited growth. Additionally, following the procedure of broth microdilution, the initial culture before incubation and the samples from wells where the color remained unchanged after 48 h of incubation were subjected to 10-fold serial dilutions. Each dilution sample (10 µL) was then plated on drug-free agar for colony counting.

[2] = system: M. gallisepticum strain S6; test: Static time-kill curves and Sigmoid Emax fit of kill rate; assay type: cell-based, Mycoplasma gallisepticum; conditions: for EC50: Mycoplasmoides gallisepticum, read-out: EC50 (concentration at half-maximal kill rate); for decrease of mycoplasma counts / type of effect: static; for decrease of mycoplasma counts: within 48 h
Protocol: Based on the MIC value from broth microdilution method, 7 mL blank medium, 0.2 mL amphenmulin solution, and 0.8 mL M. gallisepticum suspension were taken into 10-mL Celine bottles to make the final mycoplasma count of 10^7 CFU/mL, as well as final concentrations of amphenmulin of 1, 2, 4, 6, 8, 16, 32, and 64 MIC, respectively. Growth control (without drug) and negative control (blank medium) were also set up for culture. Then at 0, 6, 9, 12, 24, 36, and 48 h, 100 µL of each culture was taken for counting using the aforementioned method, with a lower limit of 100 CFU/mL. The experiment was repeated three times.
The efficacy of amphenmulin against M. gallisepticum was measured by the kill rate per unit of time. Considering the growth of M. gallisepticum observed in preliminary experiments, this study selected seven time periods of 0–24, 0–36, 0–48, 6–24, 6–36, 6–48, and 12–48 h to calculate the kill rates of amphenmulin. The Sigmoid Emax model in Phoenix was used to fit the relationship between mean kill rate and drug concentration, which is shown below:
E, kill rate of amphenmulin against M. gallisepticum within a period; E0, change rate of M. gallisepticum in the control group (without drug); Emax, maximum kill rate within a period; Ce, concentration of amphenmulin; EC50, drug concentration at half-maximal kill rate; N, Hill coefficient, reflecting the slope of the kill rate–concentration curve.

M. gallisepticum = test: In vitro dynamic model (one-compartment, first-order elimination); assay type: cell-based, Mycoplasma gallisepticum
Protocol: According to previous reports ([21][–][23]), an in vitro model compatible with M. gallisepticum growth and amphenmulin pharmacokinetics was developed ([24]). It comprised a reservoir chamber containing fresh, drug-free medium; a reaction chamber with a three-necked flask where amphenmulin interacts with M. gallisepticum, containing 300 mL of medium in the outer chamber (external compartment, EC) and 10 mL of M. gallisepticum culture (10^7 CFU/mL) in a semipermeable membrane chamber (internal compartment, IC); and a waste chamber collecting effluent, which were connected via tubing and controlled by a peristaltic pump (Fig. 2). In this model, the flow rate was calculated as 1.63 mL/min from the reaction chamber volume and amphenmulin’s elimination half-life (T1/2Ke) after intravascular administration in chickens, enabling dynamic changes in drug concentrations that simulate amphenmulin elimination in chickens and its activity against M. gallisepticum. The in vitro elimination of amphenmulin followed first-order kinetics:
where C0 is the initial amphenmulin concentration, C is the amphenmulin concentration at time t, k is the elimination rate constant, and t is the time after dosing. […]
The determination of amphenmulin in the medium referenced our laboratory’s method for extracting tiamulin ([25]) and was also detected by the HPLC-MS/MS method mentioned in the PK section.

[3] = design: method as in PMID 32079232; conditions: mice; cited from earlier work
[4] = design: method as in PMID 29722184, PMID 32079232; conditions: cited from earlier work
[5] = system: methicillin-resistant Staphylococcus aureus (MRSA); conditions: cited from earlier work

Q: With `C=C[C@]1(C)C[C@@H](OC(=O)CSc2ccccc2N)[C@]2(C)[C@H](C)CC[C@]3(CCC(=O)[C@H]32)[C@@H](C)[C@@H]1O` [amphenmulin, 22-(2-amino-phenylsulfanyl)-22-deoxypleuromutilin] as the compound, how does the MIC ([1]; Mycoplasmoides gallisepticum, S6STRAIN, broth microdilution, inoculum 10^7 CFU/mL, strain S6) read?
A: Its MIC is 3.9 ng/mL (≈ 0.00803 µM).

Q: What about the MBC ([1]; Mycoplasmoides gallisepticum, S6STRAIN, inoculum 10^7 CFU/mL, reduction > 3 Log10CFU/mL after 48 h) of the same compound?
A: The MBC was 0.0156 µg/mL (≈ 0.0321 µM).

Q: And the “MIC at inoculum levels of 107, 106, and 105” value ([1]; early pre-experiments (response to reviewer))?
A: The value was “no significant difference”.

Q: What about the EC50 ([2]; S6, period 0–24 h) of the same compound?
A: The EC50 was 0.0325 µg/mL (≈ 0.0669 µM).

Q: And the EC50 ([2]; S6, period 0–36 h)?
A: The EC50 was 0.0914 µg/mL (≈ 0.188 µM).

Q: What about the EC50 ([2]; S6, period 0–48 h) of the same compound?
A: Its EC50 is 0.913 µg/mL (≈ 1.88 µM).

Q: And the EC50 ([2]; S6, period 6–24 h)?
A: The EC50 was 0.0082 µg/mL (≈ 0.0169 µM).

Q: What about the EC50 ([2]; S6, period 6–36 h) of the same compound?
A: The EC50 was 0.0053 µg/mL (≈ 0.0109 µM).

Q: What about the EC50 ([2]; S6, period 6–48 h) of the same compound?
A: The EC50 was 0.0526 µg/mL (≈ 0.108 µM).

Q: What about the EC50 ([2]; S6, period 12–48 h) of the same compound?
A: Its EC50 is 0.524 µg/mL (≈ 1.08 µM).

Q: And the “Emax (maximum kill rate)” value ([2]; period 0–24 h)?
A: The value was 0.1261 h⁻¹.

Q: What about the “Emax (maximum kill rate)” value ([2]; period 0–36 h) of the same compound?
A: The value was 0.1817 h⁻¹.

Q: What about the “Emax (maximum kill rate)” value ([2]; period 0–48 h) of the same compound?
A: The value was 0.3277 h⁻¹.

Q: And the “Emax (maximum kill rate)” value ([2]; period 6–24 h)?
A: The value was 0.0805 h⁻¹.

Q: And the “Emax (maximum kill rate)” value ([2]; period 6–36 h)?
A: Its value is 0.0821 h⁻¹.

Q: What about the “Emax (maximum kill rate)” value ([2]; period 6–48 h) of the same compound?
A: Its value is 0.1743 h⁻¹.

Q: What about the “Emax (maximum kill rate)” value ([2]; period 12–48 h) of the same compound?
A: Its value is 0.2880 h⁻¹.

Q: And the “decrease of mycoplasma counts” value ([2]; 1 MIC)?
A: Its value is 0.44 Log10CFU/mL.

Q: And the type of effect ([2]; 2–32 MIC)?
A: The type of effect was “bacteriostatic effect”.

Q: And the “decrease of mycoplasma counts” value ([2]; 2–32 MIC)?
A: Its value is 0.57–2.7 Log10CFU/mL.

Q: What about the type of effect ([2]; 64 MIC) of the same compound?
A: The type of effect was “bactericidal effect”.

Q: And the “decrease of mycoplasma counts” value ([2]; 64 MIC)?
A: Its value is 3.85 Log10CFU/mL.

Q: What about the “mycoplasma numbers at the highest dose” value (M. gallisepticum; counting limit) of the same compound?
A: Its value is less than 100 CFU/mL.

Q: And the “maximum decrease of M. gallisepticum counts within 0–72 h” value (M. gallisepticum; doses of 0.1–0.5 μg/mL)?
A: The value was no more than 2.82 Log10CFU/mL.

Q: What about the oral bioavailability [3] of the same compound?
A: The oral bioavailability was 13.65%.

Q: And the acute toxicity [4]?
A: The acute toxicity was “practically non-toxic”.

Q: And the “antibacterial activity against MRSA compared with tiamulin” value [5]?
A: Its value is “better antibacterial activity”.

Q: What about the “static kill curve against MRSA, character of effect” value [5] of the same compound?
A: The value was “more time-dependent tendency and bacteriostatic effects”.
